Assay results from patent US11849728B2, “Method for controlling soybean rust fungus having resistance against Qo site inhibitor” (SUMITOMO CHEMICAL COMPANY, LIMITED, priority 2018, dated 2023).

Tested on: soybean rust fungus (Phakopsora pachyrhizi) having an amino acid substitution of F129L on mitochondrial cytochrome b protein
Assay: Leaf disk test for control of soybean rust (Test Example 1 / Comparative Test Example 1)
Format: in vivo
Conditions: method of Test Example 1
Procedure: Soybean leaf (cv; Kurosengoku) was punched out to 1 cm diameter to prepare a leaf disk. Each 1 mL of an agar medium (agar concentration 1.2%) was dispensed in 24 well microplate. A piece of the leaf disk was placed on each well. To a mixture of 0.5 μL of Sorpol (registered trademark) 1200KX, 4.5 μL of DMSO, and 5 μL of xylene was added 20 μL of a solution containing 10000 ppm of the test compound in DMSO. The resulting mixture was diluted with ion exchange water to prepare a spray solution containing a predetermined concentration of the test compound. The spray solution was sprayed in 10 μL per one leaf disk. After 1 day, an aqueous suspension of spores of soybean rust fungus (Phakopsora pachyrhizi) having an amino acid substitution of F129L on mitochondrial cytochrome b protein (1.0×10^5/mL) was inoculated onto the leaf disks. After the inoculation, the microplate was placed in a growth chamber (light on for 6 hours, light off for 18 hours, 23° C. temperature, 60% humidity). After 1 day, the leaf disks were air-dried to disappear water droplets on the surface of the leaf disk, and the microplate was placed again in the growth chamber for 12 days. Thereafter, a lesion area of soybean rust disease was assessed. […] Here the untreated means that the spray solution containing the test compound was not sprayed onto the leaf disk.
The test was conducted by using as a test compound the compound 3 or 8 of the present invention, the present compound 6, 12, 13, 22, 38, 40, 48, 51, 64 or 84, pyraclostrobin, azoxystrobin, picoxystrobin, orysastrobin, dimoxystrobin, metominostrobin, or pyribencarb at 12.5 ppm or 3.1 ppm according to a method described in the Test Example 1. The results are indicated in [Table A], [Table B], and [Table C].

| Structure (SMILES) | Lesion area (%) (3.1 ppm) | Lesion area (%) (12.5 ppm) |
| --- | --- | --- |
| CO/C=C(\Oc1cc(/C=C/C2CC2)ccc1C)C(=O)OC [Compound 3 of the present invention] | 10 | 0 |
| CO/N=C(\Cc1cc(C#CC(C)(C)C)ccc1C)C(=O)OC [Present Compound 6] | 0 | 0 |
| CNC(=O)/C(Cc1cc(C#CC(C)(C)OC)ccc1C)=N/OC [Present Compound 12] | 0 | 0 |
| COc1nn(C)c(=O)n1Cc1cc(C#C[Si](C)(C)C)ccc1C [Present Compound 13] | 30 | 0 |
| CO/C=C(\Oc1cc(-c2ccc(F)cc2)ccc1C)C(=O)OC [Present Compound 22] | 10 | 0 |
| Cc1ccc(-c2ccccc2)cc1Cn1c(C(F)F)nn(C)c1=O [Present Compound 40] | 0 | 0 |
| CO/C=C(\Oc1cc(/C(C)=N/OCc2cccc(C)c2)ccc1C)C(=O)OC [Present Compound 48] | – | 0 |
| CCCO/N=C(\C)c1ccc(C)c(C/C(=N\OC)C(=O)NC)c1 [Present Compound 51] | – | 0 |
| CO/C=C(\Oc1cc(-c2cccs2)ccc1C)C(=O)OC [Present Compound 64] | 10 | 0 |
| CO/C=C(\Oc1cc(/C(C)=N/OCC2CCC2)ccc1C)C(=O)OC [Present Compound 84] | – | 0 |
| CO/C=C(/C(=O)OC)c1ccccc1Oc1cc(Oc2ccccc2C#N)ncn1 [azoxystrobin, reference compound] | 100 | 100 |
| CNC(=O)/C(=N/OC)c1ccccc1COc1cc(C)ccc1C [dimoxystrobin, reference compound] | 100 | 100 |
| CNC(=O)/C(=N/OC)c1ccccc1Oc1ccccc1 [metominostrobin, reference compound] | 100 | 100 |
| CNC(=O)/C(=N/OC)c1ccccc1CO/N=C(C)/C(=N/OC)C(/C)=N/OC [orysastrobin, reference compound] | 100 | 100 |
| CO/C=C(/C(=O)OC)c1ccccc1COc1cccc(C(F)(F)F)n1 [picoxystrobin, reference compound] | 100 | 100 |
| COC(=O)N(OC)c1ccccc1COc1ccn(-c2ccc(Cl)cc2)n1 [pyraclostrobin, reference compound] | 100 | 100 |
| COC(=O)NCc1cc(/C(C)=N/OCc2cccc(C)n2)ccc1Cl [pyribencarb, reference compound] | 100 | 100 |
